US20260273011A1, “COMPOSITION COMPRISING STEWARTIA PSEUDOCAMELLIA EXTRACT AS ACTIVE INGREDIENT FOR PREVENTION OR TREATMENT OF DEMENTIA” (priority 2022, published 2026)
Read-outs that look alike come from different tables or passages of the source. Ends that are not written are not given here.

How the values were obtained:
[1] = test system: human neuroblastoma SH-SY5Y cells; details: H2O2 50 μM, 24 hours
Protocol: First, the cells were plated into a 96-well plate at a concentration of 5×10^3 cells/well, and then cultured for 24 hours at 95% humidity, 5% CO2, and 37° C. for stabilization. After removing the medium, 10 μl of H2O2 diluted with fresh medium was treated at each concentration, and the resulting mixture was allowed to react for 24 hours at 95% humidity, 5% CO2, and 37° C.
The viability of the cells was measured using the MTS (CellTiter 96® AQueous One Solution Cell Proliferation Assay, Promega, USA) reagent. In other words, 10 μl of the reagent was treated per well, and after a reaction at 37° C. for 60 minutes, the absorbance was measured at 490 nm using a microplate reader (Molecular Devices LLC, VersaMax ELISA Microplate Reader, USA).

[2] = test system: human neuroblastoma SH-SY5Y cells; assay: Human neuroblastoma SH-SY5Y cell toxicity (MTS); format: cell-based
Protocol: Neuronal cells (human neuroblastoma SH-SY5Y) were obtained from the Korean Cell Line Bank (KCLB, Seoul, Korea). The medium used was a minimum essential medium (SH30024.01, Cytiva, USA) containing 10% fetal bovine serum (FBS, Gibco, CA, USA) medium, 25 mM 4-(2-hydroxyethyl)-1-piperazine ethanesulfonic acid (HEPES), and 25 mM NaHCO3. The cells were cultured in an incubator controlled at 95% humidity, 5% CO2, and 37° C., and an antibiotic for the medium (penicillin-streptomycin, Gibco, CA, USA) was used to suppress microbial contamination or proliferation. When the cells covered about 80% of the dish, the dish was washed with phosphate-buffered saline-ethylenediaminetetraacetic acid (PBS-EDTA, Thermo Fisher Scientific, Massachusetts, USA), and then 1 ml of 0.05% trypsin-EDTA (Gibco, Thermo Fisher Scientific, Massachusetts, USA) was used to detach the cells attached to the bottom of the dish and subculture them. The medium was exchanged with fresh medium every 48 to 72 hours to culture the cells.
After removing the medium, 100 μl of the sample diluted with fresh medium was applied and allowed to react with the cells for 24 hours in an incubator at 95% humidity, 5% CO2, and 37° C.
In other words, 1 ml of the reagent was diluted with 9 ml of medium (DMEM high glucose, free FBS), and 100 μl of the mixture was added to each well.

SH-SY5Y cells = assay: ROS generation suppression ability in neurons (DCF-DA, H2O2); format: cell-based, human; details: ursolic acid 0.1 to 5 μg/ml
Protocol: The generation of ROS is measured by the intensity of fluorescent material generation using 2′,7′-dichlorofluorescin diacetate (DCF-DA), and the principle is that 2′,7′-dichlorofluorescin (DCF) in a reduced or acetylated form releases a fluorescent material ([…]) when the acetate group is removed by the […] and ROS generated within cells.
SH-SY5Y cells were plated into a 96-well plate (100 μl) at a concentration of 5×10^4 cells/well and cultured for 24 hours. After the culture, the medium was removed, and the sample was treated at an appropriate concentration using a medium containing no serum and then cultured for 24 hours. After 24 hours, 100 μl of PBS was added and the resulting mixture was washed, and this process was repeated three times. DCF-DA dissolved in dimethyl sulfoxide (DMSO) was diluted to 20 μM (in PBS), and 100 μl of the diluted solution was added and incubated for 20 minutes. After adding 100 μl of 100 μM H2O2 (in PBS), the mixture was allowed to react for 30 minutes, and the fluorescence intensity was measured at 486 nm and 535 nm using an enzyme-linked immunosorbent assay (ELISA) reader.

[3] = test system: human neuroblastoma SH-SY5Y cells; assay: Neuroprotective effect against Aβ-peptide 25-35 cytotoxicity (MTS); format: cell-based; parameters: dose or concentration left out as unconfirmed; details: Aβ treatment
Protocol: (§1) To measure the neuronal cell death concentration by Aβ 25-35, Aβ-protein fragment 25-35 (Sigma-Aldrich, A4559-1 MG) was purchased and used.
(§2) For the aggregation of Aβ, it was dissolved in distilled water and allowed to react at 37° C. for five days at 150 rpm.

[4] = test system: human neuroblastoma SH-SY5Y cells; assay: Neuroprotective effect against H2O2 cytotoxicity (MTS); format: cell-based; details: 50 μM H2O2 treatment
Protocol: After removing the medium, […], which has a cell viability of about 50%, was treated with fresh medium, and then 10 μl of the samples of Examples 1 to 4 and Comparative Example 1 were treated at each concentration, and the resulting mixtures were allowed to react at 95% humidity, 5% CO2, and 37° C. for 24 hours.

[5] = test system: human neuroblastoma SH-SY5Y cells; assay: Cell death concentration for Aβ-peptide 25-35 (MTS); format: cell-based; details: Aβ 20 μM, 24 hours
Protocol: as §1, §2

OO [Example H2O2, Hydrogen peroxide]
cell viability [1]: approximately 50%

C[C@H]1[C@H](C)CC[C@]2(C(=O)O)CC[C@]3(C)C(=CC[C@@H]4[C@@]5(C)CC[C@H](O)C(C)(C)[C@@H]5CC[C@]43C)[C@H]12 [ursolic acid]
concentration at which toxicity on neurons was exhibited [2]: ≥ 10000 ng/mL | ROS generation suppression ability (SH-SY5Y cells): significant suppression activity | neuroprotective effect against Aβ-peptide 25-35 cytotoxicity [3]: significant effect | neuroprotective effect against H2O2 cytotoxicity [4]: high cell protection efficacy

GSNKGAIIGLM [Aβ, Aβ-protein fragment 25-35]
cell viability [5]: approximately 50%
